In assay [1] the target is Fibroblast growth factor receptor 2 (Homo sapiens) (UniProt P21802). Kind of assay: Selectivity interaction (ProQinase) EUB0000171b FGFR2.
The target in assay [2] is T1, Ephrin type-B receptor 4 (Homo sapiens) (UniProt P54760).
T1 sequence (whole entry): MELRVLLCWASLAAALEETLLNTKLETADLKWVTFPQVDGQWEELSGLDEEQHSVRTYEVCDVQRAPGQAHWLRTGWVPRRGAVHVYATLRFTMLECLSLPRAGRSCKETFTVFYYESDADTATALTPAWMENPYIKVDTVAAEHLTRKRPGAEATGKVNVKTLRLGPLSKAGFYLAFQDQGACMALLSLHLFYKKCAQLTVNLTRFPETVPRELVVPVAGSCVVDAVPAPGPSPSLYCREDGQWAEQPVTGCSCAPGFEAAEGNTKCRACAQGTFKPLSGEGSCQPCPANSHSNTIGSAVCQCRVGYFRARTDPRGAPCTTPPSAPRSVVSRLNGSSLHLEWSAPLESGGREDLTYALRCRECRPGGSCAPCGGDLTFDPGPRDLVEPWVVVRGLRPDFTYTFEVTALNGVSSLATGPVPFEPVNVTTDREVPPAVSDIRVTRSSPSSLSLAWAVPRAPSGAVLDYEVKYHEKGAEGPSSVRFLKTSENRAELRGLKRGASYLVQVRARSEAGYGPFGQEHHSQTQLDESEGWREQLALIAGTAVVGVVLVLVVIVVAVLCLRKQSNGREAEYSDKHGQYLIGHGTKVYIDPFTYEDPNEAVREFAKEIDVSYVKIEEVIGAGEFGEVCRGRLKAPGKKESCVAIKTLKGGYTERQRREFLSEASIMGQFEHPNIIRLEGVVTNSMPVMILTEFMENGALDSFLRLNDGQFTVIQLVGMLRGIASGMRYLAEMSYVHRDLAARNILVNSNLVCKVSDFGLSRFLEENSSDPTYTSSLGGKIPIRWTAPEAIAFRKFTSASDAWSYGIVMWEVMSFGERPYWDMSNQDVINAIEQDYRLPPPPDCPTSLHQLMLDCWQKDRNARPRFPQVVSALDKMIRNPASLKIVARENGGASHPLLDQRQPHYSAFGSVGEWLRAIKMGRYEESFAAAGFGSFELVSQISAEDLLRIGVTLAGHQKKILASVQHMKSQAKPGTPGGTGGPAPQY
Briefly: Selectivity interaction (Ambit KINOMEscan and KiNATiv profiling in Jurkat cells) EUB0000090b EPHB4. It counts as cell-based. The note with it: at 1 µM.

The target in assay [3] is Protein kinase C beta type (Homo sapiens, UniProt P05771). Briefly: Selectivity interaction (Millipore kinase profiler) EUB0000124b PRKCB. The note with it: at 10 µM.
Protein kinase C beta type, sequence (P05771 2-671 limits assumed): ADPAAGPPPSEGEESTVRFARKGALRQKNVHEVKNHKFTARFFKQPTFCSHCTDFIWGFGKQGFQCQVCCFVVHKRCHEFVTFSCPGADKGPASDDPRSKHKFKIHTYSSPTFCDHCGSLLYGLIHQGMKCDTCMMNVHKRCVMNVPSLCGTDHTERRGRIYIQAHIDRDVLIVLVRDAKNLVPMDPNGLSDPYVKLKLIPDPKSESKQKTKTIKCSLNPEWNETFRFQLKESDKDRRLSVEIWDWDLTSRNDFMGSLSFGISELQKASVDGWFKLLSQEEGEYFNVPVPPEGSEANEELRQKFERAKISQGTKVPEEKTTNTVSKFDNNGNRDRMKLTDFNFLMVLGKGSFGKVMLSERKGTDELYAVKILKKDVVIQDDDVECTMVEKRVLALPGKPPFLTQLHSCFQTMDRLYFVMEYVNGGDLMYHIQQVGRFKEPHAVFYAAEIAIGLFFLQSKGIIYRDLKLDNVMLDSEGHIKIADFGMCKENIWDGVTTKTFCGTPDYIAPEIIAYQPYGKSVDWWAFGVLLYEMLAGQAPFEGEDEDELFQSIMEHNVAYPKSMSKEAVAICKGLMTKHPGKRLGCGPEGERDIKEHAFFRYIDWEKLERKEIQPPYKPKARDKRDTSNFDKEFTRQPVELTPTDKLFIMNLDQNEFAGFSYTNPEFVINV
The target in assay [4] is Mitogen-activated protein kinase 1 (Homo sapiens, UniProt P28482). Briefly: Selectivity interaction (KinomeScan (DiscoverX)) EUB0000655a MAPK1. The settings on record: at 10 µM.
Mitogen-activated protein kinase 1, sequence (P28482 whole entry): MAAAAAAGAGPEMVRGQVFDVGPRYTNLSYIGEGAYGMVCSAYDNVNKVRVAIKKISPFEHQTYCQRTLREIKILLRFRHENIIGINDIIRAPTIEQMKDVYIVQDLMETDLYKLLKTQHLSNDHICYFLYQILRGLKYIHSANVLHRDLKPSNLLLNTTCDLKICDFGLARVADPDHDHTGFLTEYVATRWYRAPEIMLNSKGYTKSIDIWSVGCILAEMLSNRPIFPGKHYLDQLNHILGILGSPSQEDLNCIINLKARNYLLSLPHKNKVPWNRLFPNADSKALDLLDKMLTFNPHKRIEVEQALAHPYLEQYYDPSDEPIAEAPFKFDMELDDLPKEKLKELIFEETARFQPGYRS
For assay [5], the target named is TGF-beta receptor type-2 (Homo sapiens) (UniProt P37173). Kind of assay: Selectivity interaction (KinomeScan (DiscoverX)) EUB0000045b TGFBR2.
TGF-beta receptor type-2 (Homo sapiens), sequence (P37173 whole entry): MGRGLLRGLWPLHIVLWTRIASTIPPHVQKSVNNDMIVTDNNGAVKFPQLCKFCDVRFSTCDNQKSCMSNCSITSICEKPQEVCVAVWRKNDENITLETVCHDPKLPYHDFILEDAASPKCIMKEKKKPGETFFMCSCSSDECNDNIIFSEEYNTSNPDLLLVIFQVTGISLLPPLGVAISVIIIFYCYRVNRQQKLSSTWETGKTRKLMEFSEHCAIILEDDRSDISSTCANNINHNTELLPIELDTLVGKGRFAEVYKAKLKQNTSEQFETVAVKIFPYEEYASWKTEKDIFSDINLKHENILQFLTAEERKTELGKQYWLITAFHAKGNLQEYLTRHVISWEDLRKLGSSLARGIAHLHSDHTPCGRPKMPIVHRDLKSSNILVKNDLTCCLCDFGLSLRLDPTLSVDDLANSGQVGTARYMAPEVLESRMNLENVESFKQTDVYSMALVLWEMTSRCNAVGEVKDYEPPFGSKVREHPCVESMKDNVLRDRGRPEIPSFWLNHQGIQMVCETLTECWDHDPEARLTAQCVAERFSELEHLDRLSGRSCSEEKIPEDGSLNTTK
In assay [6] the target is T2, Aurora kinase C (Homo sapiens) (UniProt Q9UQB9).
T2 sequence (whole entry): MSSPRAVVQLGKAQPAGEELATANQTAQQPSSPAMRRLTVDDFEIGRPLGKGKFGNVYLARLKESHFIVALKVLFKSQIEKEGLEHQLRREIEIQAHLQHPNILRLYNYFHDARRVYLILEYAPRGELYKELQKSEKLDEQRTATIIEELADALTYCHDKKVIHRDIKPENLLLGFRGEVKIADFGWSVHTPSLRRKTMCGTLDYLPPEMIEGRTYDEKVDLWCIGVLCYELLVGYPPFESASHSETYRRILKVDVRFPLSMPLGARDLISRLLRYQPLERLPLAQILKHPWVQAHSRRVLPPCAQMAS
Briefly: Selectivity interaction (KinomeScan (DiscoverX)) EUB0000045b AURKC.

Assay [7] concerns the target Dual specificity protein kinase CLK1 (Homo sapiens, UniProt P49759). Briefly: Selectivity interaction (KinomeScan (DiscoverX)) EUB0000045b CLK1.
For assay [8], the target named is Cyclin-dependent kinase 5 (Homo sapiens, UniProt Q00535). Briefly: Selectivity interaction (LanthaScreen Eu Kinase Binding Assay) EUB0001632a CDK5. The note with it: at 10 µM. In general terms: TR-FRET usually uses a lanthanide donor and a delayed reading to cut background.
Cyclin-dependent kinase 5, sequence (Q00535 whole entry, looked up): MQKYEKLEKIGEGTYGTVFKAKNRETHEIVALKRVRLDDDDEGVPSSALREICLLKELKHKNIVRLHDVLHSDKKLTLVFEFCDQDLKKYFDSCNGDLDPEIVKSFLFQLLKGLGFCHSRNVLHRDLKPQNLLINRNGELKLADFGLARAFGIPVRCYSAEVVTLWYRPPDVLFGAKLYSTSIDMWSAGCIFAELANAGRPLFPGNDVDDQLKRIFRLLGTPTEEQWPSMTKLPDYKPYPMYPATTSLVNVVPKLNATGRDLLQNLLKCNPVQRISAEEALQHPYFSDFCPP
Assay [9] deals with Glycogen synthase kinase-3 alpha (Homo sapiens, UniProt P49840). Briefly: Selectivity interaction (KinomeScan (DiscoverX)) EUB0000607a GSK3A. The settings on record: at 10 µM.
Glycogen synthase kinase-3 alpha, sequence (P49840 2-483 limits assumed): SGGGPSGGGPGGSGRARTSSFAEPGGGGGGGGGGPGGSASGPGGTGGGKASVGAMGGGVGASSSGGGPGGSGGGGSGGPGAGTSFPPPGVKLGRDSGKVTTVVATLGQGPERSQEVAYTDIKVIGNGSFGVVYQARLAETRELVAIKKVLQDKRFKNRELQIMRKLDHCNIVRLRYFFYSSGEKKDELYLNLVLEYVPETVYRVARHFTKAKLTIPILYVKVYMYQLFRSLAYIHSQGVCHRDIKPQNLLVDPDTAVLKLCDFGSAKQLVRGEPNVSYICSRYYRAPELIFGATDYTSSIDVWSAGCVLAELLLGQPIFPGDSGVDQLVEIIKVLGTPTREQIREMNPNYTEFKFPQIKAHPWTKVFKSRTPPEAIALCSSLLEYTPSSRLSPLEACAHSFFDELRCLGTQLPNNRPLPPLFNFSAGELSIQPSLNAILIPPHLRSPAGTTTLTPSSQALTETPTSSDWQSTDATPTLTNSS
The target of assay [10] is Ribosomal protein S6 kinase beta-1 (Homo sapiens, UniProt P23443). Briefly: Selectivity interaction (ActivX KiNativ screen (kinase selectivity in THP-1 cell lysates)) EUB0000639a RPS6KB1. The settings on record: lysate. It counts as subcellular.
Ribosomal protein S6 kinase beta-1, sequence (P23443 whole entry, looked up): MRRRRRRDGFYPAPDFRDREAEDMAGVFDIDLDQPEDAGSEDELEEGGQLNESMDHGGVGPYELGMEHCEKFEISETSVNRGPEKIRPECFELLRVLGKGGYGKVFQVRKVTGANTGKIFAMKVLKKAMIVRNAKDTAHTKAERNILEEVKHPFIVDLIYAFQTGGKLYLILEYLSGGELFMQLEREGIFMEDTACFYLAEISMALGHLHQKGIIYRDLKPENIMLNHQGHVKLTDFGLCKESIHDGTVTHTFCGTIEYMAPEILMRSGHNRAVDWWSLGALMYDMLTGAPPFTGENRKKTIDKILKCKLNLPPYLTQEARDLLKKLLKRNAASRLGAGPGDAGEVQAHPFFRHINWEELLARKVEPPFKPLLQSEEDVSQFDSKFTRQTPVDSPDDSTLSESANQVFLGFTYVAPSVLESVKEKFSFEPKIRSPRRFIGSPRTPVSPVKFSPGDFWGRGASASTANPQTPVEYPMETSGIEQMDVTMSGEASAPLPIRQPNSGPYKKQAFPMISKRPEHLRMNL
Assay [11] addresses Casein kinase II subunit alpha (Homo sapiens, UniProt P68400). Briefly: Selectivity interaction (ActivX KiNativ screen (kinase selectivity in THP-1 cell lysates)) EUB0000639a CSNK2A1. The note with it: lysate. It is filed as subcellular.
The target in assay [12] is Bromodomain and WD repeat-containing protein 1 (Homo sapiens) (UniProt Q9NSI6). Briefly: Selectivity interaction (Human bromodomain panel (DSF assay)) EUB0000233b BRWD1.
The target of assay [13] is Cyclin-dependent kinase 17 (Homo sapiens) (UniProt Q00537). Briefly: Selectivity interaction (Kinase panel (KiNativ target engagement assay in Jurkat cells)) EUB0001635a CDK17. It counts as cell-based. The settings on record: Selectivity number of off-targets 0.0, Selectivity number of targets 233.0, Source Knowledge https://www.sciencedirect.com/science/article/pii/S2451945619300674?via%3Dihub, at 1 µM.

Casein kinase II subunit alpha, sequence (P68400 whole entry, looked up): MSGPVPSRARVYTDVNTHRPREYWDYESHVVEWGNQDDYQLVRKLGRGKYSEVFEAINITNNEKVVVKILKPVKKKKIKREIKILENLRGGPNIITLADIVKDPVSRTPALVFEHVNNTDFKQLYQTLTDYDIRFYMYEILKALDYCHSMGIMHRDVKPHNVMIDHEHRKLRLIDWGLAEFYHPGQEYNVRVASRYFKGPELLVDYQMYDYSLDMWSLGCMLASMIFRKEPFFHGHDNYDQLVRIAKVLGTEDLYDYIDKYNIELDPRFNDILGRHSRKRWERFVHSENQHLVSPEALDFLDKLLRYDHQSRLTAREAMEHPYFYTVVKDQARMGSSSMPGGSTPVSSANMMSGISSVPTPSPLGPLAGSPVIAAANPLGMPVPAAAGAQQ
Fibroblast growth factor receptor 2 (Homo sapiens), sequence (P21802 22-821 limits assumed): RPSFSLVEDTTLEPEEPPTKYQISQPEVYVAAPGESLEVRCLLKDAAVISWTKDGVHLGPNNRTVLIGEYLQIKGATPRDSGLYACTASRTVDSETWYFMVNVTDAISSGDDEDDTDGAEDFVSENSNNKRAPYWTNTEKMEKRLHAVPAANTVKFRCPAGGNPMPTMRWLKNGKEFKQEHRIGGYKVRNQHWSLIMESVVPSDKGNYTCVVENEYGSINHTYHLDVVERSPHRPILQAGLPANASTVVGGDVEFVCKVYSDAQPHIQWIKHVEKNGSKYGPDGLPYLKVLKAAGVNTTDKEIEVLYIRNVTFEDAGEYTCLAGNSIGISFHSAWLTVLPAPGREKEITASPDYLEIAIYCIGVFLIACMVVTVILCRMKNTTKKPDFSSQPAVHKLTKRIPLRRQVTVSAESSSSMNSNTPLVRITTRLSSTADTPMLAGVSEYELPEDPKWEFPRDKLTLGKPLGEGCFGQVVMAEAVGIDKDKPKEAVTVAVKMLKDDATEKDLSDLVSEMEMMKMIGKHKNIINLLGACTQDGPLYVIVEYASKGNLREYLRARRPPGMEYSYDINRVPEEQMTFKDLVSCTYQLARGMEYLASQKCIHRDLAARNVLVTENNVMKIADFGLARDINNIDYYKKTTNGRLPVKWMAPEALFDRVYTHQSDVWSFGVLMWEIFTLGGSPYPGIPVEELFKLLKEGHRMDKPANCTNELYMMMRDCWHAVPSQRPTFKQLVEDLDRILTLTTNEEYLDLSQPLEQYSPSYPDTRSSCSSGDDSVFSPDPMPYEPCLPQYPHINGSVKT
Dual specificity protein kinase CLK1, sequence (P49759 whole entry, looked up): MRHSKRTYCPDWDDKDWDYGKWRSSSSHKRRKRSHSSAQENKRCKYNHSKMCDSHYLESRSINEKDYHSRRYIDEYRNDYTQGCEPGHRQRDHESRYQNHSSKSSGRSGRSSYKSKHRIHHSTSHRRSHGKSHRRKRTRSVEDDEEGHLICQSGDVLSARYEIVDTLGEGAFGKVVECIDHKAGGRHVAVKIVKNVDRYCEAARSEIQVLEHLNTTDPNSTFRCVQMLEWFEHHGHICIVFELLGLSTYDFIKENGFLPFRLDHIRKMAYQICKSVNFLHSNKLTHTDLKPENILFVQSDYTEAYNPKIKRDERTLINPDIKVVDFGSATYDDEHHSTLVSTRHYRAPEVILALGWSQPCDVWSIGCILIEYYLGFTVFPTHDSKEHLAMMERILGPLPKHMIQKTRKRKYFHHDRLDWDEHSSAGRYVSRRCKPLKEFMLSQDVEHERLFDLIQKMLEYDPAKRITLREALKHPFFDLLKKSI

Regarding `C=CC(=O)Nc1cccc(C(=O)Nc2ccc(Nc3cc(-c4[nH]c(SC)nc4C)ccn3)cc2)c1`, the values for the % of control in assay [1] (at 1 µM) and in [1] (at 5 µM) were 105% and 87%, respectively.
For `CN(C)C/C=C/C(=O)Nc1ccc(C(=O)N2CCCC(Nc3ncc(Cl)c(-c4c[nH]c5ccccc45)n3)C2)cc1` (configuration not stated), the % of control in [2] is 94%.
In the case of `CC(=O)Nc1cccc(-n2c(=O)n(C3CC3)c(=O)c3c(Nc4ccc(I)cc4F)n(C)c(=O)c(C)c32)c1`, the % of control in assay [3] came out at 108%.
In the case of `CN(C)CCOc1ccc(-c2nc(-c3ccncc3)c(-c3ccc4c(c3)CC/C4=N\O)[nH]2)cc1`, the % of control in assay [4] came to 100%.
For the compound `C=CC(=O)Nc1cc(-n2c(=O)ccc3cnc4ccc(-c5ccc(NS(C)(=O)=O)cc5)cc4c32)ccc1C`, the % of control in assay [5] (at 1 µM) stood at 100%; in assay [5] (at 10 µM), 100%; in assay [6] (at 1 µM), 90%; in assay [6] (at 10 µM), 63%; in [7] (at 1 µM), 95%; in assay [7] (at 10 µM) it was 86%.
Turning to `Cn1cc(-n2cnc3c(NCc4nc5cc(Cl)c(Cl)cc5[nH]4)nc(N4CCOCC4)nc32)cn1`, in assay [8], the % of inhibition was -96.6%.
The compound `CNC(=O)Nc1ccc(-c2nc(N3CC4CCC(C3)O4)c3cnn(C4CCC5(CC4)OCCO5)c3n2)cc1` returned a % of control in assay [9] of 82%.
For the compound `CC[C@@H]1[C@H](F)C(=O)N[C@@H]1COc1nccc2cc(C(N)=O)c(OC)cc12` [ZIMLOVISERTIB], the % of inhibition in assay [10] (at 0.01 µM) is 17.1%; in assay [10] (at 0.04 µM) it was -0.8%; in [10] (at 0.2 µM), -21.6%; in [10] (at 1 µM), -2.2%; in assay [10] (at 5 µM), -3%; in assay [11] (at 1 µM), 25.8%. For the same compound, the % of inhibition in assay [11] (at 5 µM) was -6.9%.
As for `CN(C)CCCOc1ccc(-c2cc(NCCCn3cccn3)nc(S(C)(=O)=O)n2)cc1`, the dTM in [12] is less than 2 K.
Take `C=CC(=O)Nc1ccc(C(=O)Nc2[nH]nc3c2CN(C(=O)N[C@H](CN(C)C)c2ccccc2)C3(C)C)cc1`: the % of engagement in assay [13] was found to be 9.3%.

Values taken from ChEMBL document CHEMBL5465560, “Selectivity Literature for EUbOPEN Chemogenomic Library” (2024).
